These results are taken from patent US9920032B2, “Heterocyclic compounds useful as pim kinase inhibitors” (Incyte Corporation, priority 2015, dated 2018).

Assay type in all cases: biochemical
One assay concerns the target Pim-1 (Homo sapiens (Human), UniProt P11309). In words: Pim-1 kinase assay. To be noted: 1 mM ATP; read-out: PIM1 IC50. The procedure:
(§1) Pim-1 and Pim-3 kinase assays—20 μL reactions were run in white 384 well polystyrene plates dotted with 0.8 μL compound/DMSO in the assay buffer (50 mM Tris, pH 7.5, 0.01% Tween-20, 5 mM mgCl2, 0.01% BSA, 5 mM DTT), containing 0.05 μM Biotin-labeled BAD peptide substrate (AnaSpec 62269), 1 mM ATP, and 2.5 pM (Pim-1, Invitrogen PV3503) or 1.25 pM (Pim-3, Millipore 14-738) enzyme for 1 h at 25° C. Reactions were stopped by addition of 10 μL STOP Buffer (150 mM Tris, pH=7.5, 150 mM NaCl, 75 mM EDTA, 0.01% Tween-20, 0.3% BSA,) supplemented with Phospho-Bad (Ser112) Antibody (Cell Signaling 9291) diluted 666-fold, and Streptavidin donor beads (PerkinElmer 6760002) along with Protein-A acceptor beads (PerkinElmer 6760137) at […]. Supplementation of the STOP buffer with beads and stopping the reactions were done under reduced light. Prior to the stopping reactions STOP buffer with beads was preincubated for 1 h in the dark at room temperature. After stopping the reactions, plates were incubated for 1 h in the dark at room temperature before reading on a PHERAstar FS plate reader (BMG Labtech) under reduced light.

A further assay addresses Pim-3 (Homo sapiens (Human), UniProt Q86V86). In words: Pim-3 kinase assay. To be noted: 1 mM ATP; read-out: PIM3 IC50. As to the method: as §1
The target in the next assay is Pim-2 (Homo sapiens (Human), UniProt Q9P1W9). In words: Pim-2 kinase assay. To be noted: 1 mM ATP; read-out: PIM2 IC50. The procedure: Pim-2 kinase assay—20 μL reactions were run in white 384 well polystyrene plates dotted with 0.8 μL compound/DMSO in the assay buffer (50 mM Tris, pH 7.5, 0.01% Tween-20, 5 mM mgCl2, 0.01% BSA, 5 mM DTT), containing 0.05 μM Fluorescein-labeled CREBtide peptide substrate (Invitrogen PV3508), 1 mM ATP, and 1 nM enzyme (Invitrogen PV3649) for 2 h at 25° C. Reactions were stopped by addition of 10 μL TR-FRET Dilution Buffer (Invitrogen PV3574) with 30 mM EDTA and 1.5 nM LanthaScreen Tb-CREB pSer133 antibody (Invitrogen PV3566). After 30 min. incubation at room temperature, plates were read on a PHERAstar FS plate reader (BMG Labtech).
Pim-2, sequence (Q9P1W9 whole entry): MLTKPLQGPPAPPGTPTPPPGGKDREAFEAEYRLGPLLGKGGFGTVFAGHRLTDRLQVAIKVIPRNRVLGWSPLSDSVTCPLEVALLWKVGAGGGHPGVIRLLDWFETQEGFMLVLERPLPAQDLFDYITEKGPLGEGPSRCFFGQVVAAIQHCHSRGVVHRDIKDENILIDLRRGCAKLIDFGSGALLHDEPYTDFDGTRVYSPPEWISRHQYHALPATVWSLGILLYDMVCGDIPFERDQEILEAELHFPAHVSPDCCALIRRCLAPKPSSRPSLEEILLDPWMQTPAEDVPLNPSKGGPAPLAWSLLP

pIC50: −log10 of the molar value.

Pim-1, sequence (P11309 whole entry): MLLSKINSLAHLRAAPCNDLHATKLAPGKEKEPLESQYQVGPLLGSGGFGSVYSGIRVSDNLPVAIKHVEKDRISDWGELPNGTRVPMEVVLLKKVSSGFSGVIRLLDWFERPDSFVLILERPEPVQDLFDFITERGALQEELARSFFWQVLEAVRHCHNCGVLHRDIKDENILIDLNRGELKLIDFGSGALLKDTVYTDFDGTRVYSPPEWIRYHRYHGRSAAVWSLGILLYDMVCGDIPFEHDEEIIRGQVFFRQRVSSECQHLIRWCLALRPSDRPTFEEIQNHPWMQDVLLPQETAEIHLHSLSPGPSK

Regarding `C[C@@H]1C[C@H](N)C[C@H](c2ccncc2NC(=O)c2ccc(F)c3cc(N4CCO[C@@H](C)C4)cnc23)C1` [Example 38, N-(4-((1R,3S,5S)-3-Amino-5-methylcyclohexyl)pyridin-3-yl)-5-fluoro-3-((S)-2-methylmorpholino)quinoline-8-carboxamide], the pIC50 on Pim-1 was no less than 8.00; at Pim-3 it was 7.30 to 8.00; at Pim-2 it was 6.00 to 7.00.
As for `CC1CCCCN1c1cnc2c(C(=O)Nc3cnccc3[C@@H]3C[C@H](C)C[C@H](N)C3)ccc(F)c2c1` (stereo partly drawn) [Example 43, N-(4-((1R,3S,5S)-3-Amino-5-methylcyclohexyl)pyridin-3-yl)-5-fluoro-3-(2-methylpiperidin-1-yl)quinoline-8-carboxamide], the pIC50 on Pim-1 was no less than 8.00; on Pim-3 it was no less than 8.00; on Pim-2, no less than 7.00.
`C[C@@H]1C[C@H](N)C[C@H](c2ccncc2NC(=O)c2ccc(F)c3cc(N4CC5CC(C4)O5)cnc23)C1` [Example 81, N-(4-((1R,3S,5S)-3-Amino-5-methylcyclohexyl)pyridin-3-yl)-3-(6-oxa-3-azabicyclo[3.1.1]heptan-3-yl)-5-fluoroquinoline-8-carboxamide]: the pIC50 on Pim-1 was no less than 8.00; at Pim-3, no less than 8.00; at Pim-2 it was no less than 7.00.
Take `C[C@@H]1C[C@H](N)C[C@H](c2ccncc2NC(=O)c2ccc(F)c3cc(N(C)C4CCOC4)cnc23)C1` (stereo partly drawn) [Example 23, N-{4-[(1R,3S,5S)-3-Amino-5-methylcyclohexyl]pyridin-3-yl}-5-fluoro-3-[methyl(tetrahydrofuran-3-yl)amino]quinoline-8-carboxamide]: the pIC50 at Pim-1 is no less than 8.00; on Pim-3, no less than 8.00; at Pim-2, 6.00 to 7.00.
In the case of `C[C@@H]1C[C@H](N)C[C@H](c2ccncc2NC(=O)c2ccc(F)c3cc(Nc4ccccc4F)cnc23)C1` [Example 125, N-(4-((1R,3S,5S)-3-Amino-5-methylcyclohexyl)pyridin-3-yl)-5-fluoro-3-(2-fluorophenylamino)quinoline-8-carboxamide], the pIC50 at Pim-1 was no less than 8.00; on Pim-3 it was no less than 8.00; on Pim-2 it was no less than 7.00.
Consider `COC[C@@H]1CCCN1c1cnc2c(C(=O)Nc3cnccc3[C@@H]3C[C@H](C)C[C@H](N)C3)ccc(F)c2c1` [Example 48, N-(4-((1R,3S,5S)-3-Amino-5-methylcyclohexyl)pyridin-3-yl)-5-fluoro-3-((S)-2-(methoxymethyl)pyrrolidin-1-yl)quinoline-8-carboxamide], for which the pIC50 at Pim-1 is no less than 8.00; on Pim-3, no less than 8.00; at Pim-2 it was 6.00 to 7.00.
As for `C[C@@H]1C[C@H](N)C[C@H](c2ccncc2NC(=O)c2ccc(F)c3cc(N4CCC4)cnc23)C1` [Example 4, N-{4-[(1R,3S,5S)-3-Amino-5-methylcyclohexyl]pyridin-3-yl}-3-azetidin-1-yl-5-fluoroquinoline-8-carboxamide], the pIC50 on Pim-1 was no less than 8.00; on Pim-3 it was 7.30 to 8.00; at Pim-2, 6.00 to 7.00.
In the case of `C[C@@H]1C[C@H](N)C[C@H](c2ccncc2NC(=O)c2ccc(F)c3cc(N4CC[C@H](F)C4)cnc23)C1` [Example 5, N-{4-[(1R,3S,5S)-3-Amino-5-methylcyclohexyl]pyridin-3-yl}-5-fluoro-3-[(3S)-3-fluoropyrrolidin-1-yl]quinoline-8-carboxamide], the pIC50 on Pim-1 was no less than 8.00; at Pim-3, no less than 8.00; at Pim-2 it was no less than 7.00.
Take `CC(C)[C@@H](C)Nc1cnc2c(C(=O)Nc3cnccc3[C@@H]3C[C@H](C)C[C@H](N)C3)ccc(F)c2c1` [Example 54, N-(4-((1R,3S,5S)-3-amino-5-methylcyclohexyl)pyridin-3-yl)-5-fluoro-3-((R)-3-methylbutan-2-ylamino)quinoline-8-carboxamide]: the pIC50 at Pim-1 is no less than 8.00; on Pim-3 it was no less than 8.00; on Pim-2, 6.00 to 7.00.
Regarding `C[C@@H]1C[C@H](N)C[C@H](c2ccncc2NC(=O)c2ccc(F)c3cc(N4CCCC(O)CC4)cnc23)C1` (stereo partly drawn) [Example 104, N-(4-((1R,3S,5S)-3-Amino-5-methylcyclohexyl)pyridin-3-yl)-5-fluoro-3-(4-hydroxyazepan-1-yl)quinoline-8-carboxamide], the results for the pIC50 on Pim-1, at Pim-3 and at Pim-2 were no less than 8.00, no less than 8.00 and no less than 7.00, respectively.
For `CC(C)N1CCN(c2cnc3c(C(=O)Nc4cnccc4[C@@H]4C[C@H](C)C[C@H](N)C4)ccc(F)c3c2)CC1=O` [Example 115, N-(4-((1R,3S,5S)-3-Amino-5-methylcyclohexyl)pyridin-3-yl)-5-fluoro-3-(4-isopropyl-3-oxopiperazin-1-yl)quinoline-8-carboxamide], the results for the pIC50 on Pim-1, at Pim-3 and at Pim-2 were no less than 8.00, no less than 8.00 and no less than 7.00, respectively.
On to `C[C@@H]1C[C@H](N)C[C@H](c2ccncc2NC(=O)c2ccc(F)c3cc(N4CCCS4(=O)=O)cnc23)C1` [Example 138, N-(4-((1R,3S,5S)-3-Amino-5-methylcyclohexyl)pyridin-3-yl)-3-(1,1-dioxidoisothiazolidin-2-yl)-5-fluoroquinoline-8-carboxamide], for which the pIC50 was no less than 8.00 on Pim-1, no less than 8.00 at Pim-3 and 6.00 to 7.00 at Pim-2.
Regarding `C[C@@H]1C[C@H](N)C[C@H](c2ccncc2NC(=O)c2ccc(F)c3cc(N4CCC[C@@H](C)C4)cnc23)C1` [Example 105, N-(4-((1R,3S,5S)-3-Amino-5-methylcyclohexyl)pyridin-3-yl)-5-fluoro-3-((R)-3-methylpiperidin-1-yl)quinoline-8-carboxamide], the values for the negative-log IC50 (pIC50) on Pim-1, at Pim-3 and on Pim-2 were no less than 8.00, no less than 8.00 and no less than 7.00, respectively.
For `C[C@@H]1C[C@H](N)C[C@H](c2ccncc2NC(=O)c2ccc(F)c3cc(N(C)CC(F)F)cnc23)C1` [Example 42, N-(4-((1R,3S,5S)-3-Amino-5-methylcyclohexyl)pyridin-3-yl)-3-((2,2-difluoroethyl)(methyl)amino)-5-fluoroquinoline-8-carboxamide], the pIC50 was no less than 8.00 at Pim-1, no less than 8.00 at Pim-3 and no less than 7.00 at Pim-2.
Turning to `C[C@@H]1C[C@H](N)C[C@H](c2ccncc2NC(=O)c2ccc(F)c3cc(N4CCCc5cccc(F)c54)cnc23)C1` [Example 137, N-(4-((1R,3S,5S)-3-Amino-5-methylcyclohexyl)pyridin-3-yl)-5′,8-difluoro-3,4-dihydro-2H-1,3′-biquinoline-8′-carboxamide], the values for the pIC50 on Pim-1, at Pim-3 and at Pim-2 were no less than 8.00, no less than 8.00 and no less than 7.00, respectively.
Regarding `C[C@@H]1C[C@H](N)C[C@H](c2ccncc2NC(=O)c2cccc3cc(N(C)CC(F)F)cnc23)C1` [Example 72, N-(4-((1R,3S,5S)-3-Amino-5-methylcyclohexyl)pyridin-3-yl)-3-((2,2-difluoroethyl)(methyl)amino)quinoline-8-carboxamide], the pIC50 at Pim-1 is no less than 8.00; at Pim-3, no less than 8.00; at Pim-2, 6.00 to 7.00.
Turning to `CO[C@H]1C[C@@H](C)N(c2cnc3c(C(=O)Nc4cnccc4[C@@H]4C[C@H](C)C[C@H](N)C4)ccc(F)c3c2)C1` [Example 158, N-(4-((1R,3S,5S)-3-Amino-5-methylcyclohexyl)pyridin-3-yl)-5-fluoro-3-((2R,4S)-4-methoxy-2-methylpyrrolidin-1-yl)quinoline-8-carboxamide], the values for the pIC50 on Pim-1, on Pim-3 and on Pim-2 were no less than 8.00, no less than 8.00 and no less than 7.00, respectively.
Regarding `Cc1nccnc1N(C)c1cnc2c(C(=O)Nc3cnccc3[C@@H]3C[C@H](C)C[C@H](N)C3)ccc(F)c2c1` [Example 149, N-(4-((1R,3S,5S)-3-Amino-5-methylcyclohexyl)pyridin-3-yl)-5-fluoro-3-(methyl(3-methylpyrazin-2-yl)amino)quinoline-8-carboxamide], the pIC50 at Pim-1 is no less than 8.00; at Pim-3, no less than 8.00; on Pim-2 it was no less than 7.00.
`COC1CCCN(c2cnc3c(C(=O)Nc4cnccc4[C@@H]4C[C@H](C)C[C@H](N)C4)ccc(F)c3c2)CC1` (stereo partly drawn) [Example 101, N-(4-((1R,3S,5S)-3-Amino-5-methylcyclohexyl)pyridin-3-yl)-5-fluoro-3-(4-methoxyazepan-1-yl)quinoline-8-carboxamide]: the pIC50 on Pim-1 is no less than 8.00; on Pim-3, no less than 8.00; on Pim-2 it was no less than 7.00.
For the compound `C[C@@H]1C[C@H](N)C[C@H](c2ccncc2NC(=O)c2ccc(F)c3cc(-c4cn[nH]c4)cnc23)C1` [Example 66, N-(4-((1R,3S,5S)-3-amino-5-methylcyclohexyl)pyridin-3-yl)-5-fluoro-3-(1H-pyrazol-4-yl)quinoline-8-carboxamide], the figures for the pIC50 at Pim-1, on Pim-3 and at Pim-2 were no less than 8.00, no less than 8.00 and 6.00 to 7.00, respectively.
